Reference: PubChem BioAssay AID1963831 (Molecular Pharmacology Branch, DTP, NCI, 2024)
pIC50: −log10 of the molar value.

Tested on: 889142-216-R-J1-PDC complex spheroid viability
Assay: Anticancer human tumor 889142-216-R-J1-PDC patient-derived bladder carcinoma cell line growth inhibition [POLQ]
Conditions: for pIC50: curve of first compound; for viability, T/C: stronger effect = lower value
How it was run: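 PDC + HUVEC + MSC complex spheroids; POLQ inhibitors ± partner drugs; top conc. at/near clinical Cmax, else 10 microM (SN-38 1 microM), half-log dilutions; 37 degrees C, 5% CO2.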

[1] = second compound 0.0316 µM, first compound 0.0316 µM
[2] = second compound 0.0316 µM, first compound 0.1 µM
[3] = second compound 0.0316 µM, first compound 0.316 µM
[4] = second compound 0.0316 µM, first compound 1 µM
[5] = second compound 0.0316 µM, first compound 3.16 µM
[6] = second compound 0.0316 µM, first compound 10 µM
[7] = second compound 0.1 µM, first compound 0.0316 µM
[8] = second compound 0.1 µM, first compound 0.1 µM
[9] = second compound 0.1 µM, first compound 0.316 µM
[10] = second compound 0.1 µM, first compound 1 µM
[11] = second compound 0.1 µM, first compound 3.16 µM
[12] = second compound 0.1 µM, first compound 10 µM
[13] = second compound 0.316 µM, first compound 0.0316 µM
[14] = second compound 0.316 µM, first compound 0.1 µM
[15] = second compound 0.316 µM, first compound 0.316 µM
[16] = second compound 0.316 µM, first compound 1 µM
[17] = second compound 0.316 µM, first compound 3.16 µM
[18] = second compound 0.316 µM, first compound 10 µM
[19] = second compound 1 µM, first compound 0.0316 µM
[20] = second compound 1 µM, first compound 0.1 µM
[21] = second compound 1 µM, first compound 0.316 µM
[22] = second compound 1 µM, first compound 1 µM
[23] = second compound 1 µM, first compound 3.16 µM
[24] = second compound 1 µM, first compound 10 µM
[25] = second compound 3.16 µM, first compound 0.0316 µM
[26] = second compound 3.16 µM, first compound 0.1 µM
[27] = second compound 3.16 µM, first compound 0.316 µM
[28] = second compound 3.16 µM, first compound 1 µM
[29] = second compound 3.16 µM, first compound 3.16 µM
[30] = second compound 3.16 µM, first compound 10 µM
[31] = second compound 10 µM, first compound 0.0316 µM
[32] = second compound 10 µM, first compound 0.1 µM
[33] = second compound 10 µM, first compound 0.316 µM
[34] = second compound 10 µM, first compound 1 µM
[35] = second compound 10 µM, first compound 3.16 µM
[36] = second compound 10 µM, first compound 10 µM
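Note: spheroids exposed to compounds for seven days.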
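Throughout, for viability, T/C: 100% = DMSO vehicle control viability.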

CC(C)n1c(=O)n(C)c2cnc3cc(F)c(-c4ccc(OCCCN5CCCCC5)nc4)cc3c21 + Cc1cccc(N(C)C(=O)C2C(O)CCN2c2nc(C)cc(C(F)(F)F)c2C#N)c1
pIC50 (second compound 0.0316 µM): 5.41
pIC50 (second compound 0.1 µM): 5.44
pIC50 (second compound 0.316 µM): 5.43
pIC50 (second compound 1 µM): 5.43
pIC50 (second compound 3.16 µM): 5.35
pIC50 (second compound 10 µM): 5.66
viability, T/C [1]: 83.1%
viability, T/C [2]: 75.4%
viability, T/C [3]: 89.5%
viability, T/C [4]: 84.4%
viability, T/C [5]: 58.1%
viability, T/C [6]: 14.7%
viability, T/C [7]: 87.9%
viability, T/C [8]: 78.6%
viability, T/C [9]: 77%
viability, T/C [10]: 66.8%
viability, T/C [11]: 59.3%
viability, T/C [12]: 15.5%
viability, T/C [13]: 88.9%
viability, T/C [14]: 82.6%
viability, T/C [15]: 70.3%
viability, T/C [16]: 81.6%
viability, T/C [17]: 55.6%
viability, T/C [18]: 12.8%
viability, T/C [19]: 75.5%
viability, T/C [20]: 97.5%
viability, T/C [21]: 101%
viability, T/C [22]: 75.9%
viability, T/C [23]: 57%
viability, T/C [24]: 15.5%
viability, T/C [25]: 80.6%
viability, T/C [26]: 87.9%
viability, T/C [27]: 77.5%
viability, T/C [28]: 98.9%
viability, T/C [29]: 65.5%
viability, T/C [30]: 12.7%
viability, T/C [31]: 70%
viability, T/C [32]: 66.3%
viability, T/C [33]: 68.5%
viability, T/C [34]: 52.7%
viability, T/C [35]: 49.5%
viability, T/C [36]: 12%

CC1COCCN1c1cc(-c2ccnn2C)c2ccnc(-c3ccn[nH]3)c2n1 (centres undefined) + Cc1cccc(N(C)C(=O)C2C(O)CCN2c2nc(C)cc(C(F)(F)F)c2C#N)c1
pIC50 (second compound 0.0316 µM): 6.67
pIC50 (second compound 0.1 µM): 6.84
pIC50 (second compound 0.316 µM): 6.79
pIC50 (second compound 1 µM): 6.58
pIC50 (second compound 3.16 µM): 6.62
pIC50 (second compound 10 µM): 6.81
viability, T/C [1]: 84.3%
viability, T/C [2]: 52.8%
viability, T/C [3]: 50.3%
viability, T/C [4]: 37.8%
viability, T/C [5]: 31.6%
viability, T/C [6]: 25.9%
viability, T/C [7]: 67.9%
viability, T/C [8]: 55%
viability, T/C [9]: 40.4%
viability, T/C [10]: 34.7%
viability, T/C [11]: 32.2%
viability, T/C [12]: 25.8%
viability, T/C [13]: 79.9%
viability, T/C [14]: 54%
viability, T/C [15]: 43.4%
viability, T/C [16]: 33.9%
viability, T/C [17]: 29.4%
viability, T/C [18]: 25.8%
viability, T/C [19]: 74.3%
viability, T/C [20]: 59.2%
viability, T/C [21]: 45.9%
viability, T/C [22]: 41.7%
viability, T/C [23]: 32.3%
viability, T/C [24]: 26.9%
viability, T/C [25]: 76.3%
viability, T/C [26]: 56.4%
viability, T/C [27]: 42.5%
viability, T/C [28]: 48.9%
viability, T/C [29]: 32.2%
viability, T/C [30]: 27.9%
viability, T/C [31]: 57.4%
viability, T/C [32]: 56.5%
viability, T/C [33]: 40.8%
viability, T/C [34]: 34.7%
viability, T/C [35]: 30.6%
viability, T/C [36]: 26.9%
